For assay [1], the target named is T1, SaSiaT (sodium sialic acid symporter) (Staphylococcus aureus, UniProt A0A0H2XJ46).
T1 construct: gene SAUSA300_0314; recombinant SaSiaT, GFP-tag cleaved with HRV3C protease, purified in DDM
Description: isothermal titration calorimetry (n = […]); microscale thermophoresis gives Kd =[…]; proteoliposome transport KM […]. The class given is binding.

Assay [2] addresses T1, SaSiaT (sodium sialic acid symporter). Description: isothermal titration calorimetry (n = […]); microscale thermophoresis gives Kd =[…]. Format: binding. On the technique in general: Isothermal titration calorimetry measures the heat released or taken up as one component is titrated into another.

T1 sequence (A0A0H2XJ46 entry or part of it): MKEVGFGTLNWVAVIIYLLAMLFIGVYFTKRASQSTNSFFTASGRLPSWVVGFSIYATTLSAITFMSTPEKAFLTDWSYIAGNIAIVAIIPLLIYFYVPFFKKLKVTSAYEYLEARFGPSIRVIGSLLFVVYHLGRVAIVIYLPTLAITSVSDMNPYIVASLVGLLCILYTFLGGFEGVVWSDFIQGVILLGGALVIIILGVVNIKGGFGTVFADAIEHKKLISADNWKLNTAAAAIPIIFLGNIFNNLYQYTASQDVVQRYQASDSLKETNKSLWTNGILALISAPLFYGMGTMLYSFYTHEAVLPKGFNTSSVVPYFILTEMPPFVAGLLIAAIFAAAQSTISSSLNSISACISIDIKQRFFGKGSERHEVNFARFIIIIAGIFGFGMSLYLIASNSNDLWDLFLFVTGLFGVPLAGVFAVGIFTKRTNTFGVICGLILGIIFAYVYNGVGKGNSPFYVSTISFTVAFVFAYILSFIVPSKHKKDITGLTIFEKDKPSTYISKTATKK

In assay [1], `CC(=O)N[C@H]1[C@H]([C@H](O)[C@H](O)CO)OC(O)(C(=O)O)C[C@@H]1O` (some centres unmarked) [Neu5Ac, N-acetylneuraminic acid] displayed a Kd of 106 ± 2 µM.

Take `O=C(CO)N[C@H]1[C@H]([C@H](O)[C@H](O)CO)O[C@@](O)(C(=O)O)C[C@@H]1O` [Neu5Gc, N-glycolylneuraminic acid]: the dissociation constant (Kd) in assay [2] turned out to be 18 ± 2 µM.

The term Kd denotes the equilibrium constant for the complex coming apart.

The values above are taken from PMC6039549, “The Sodium Sialic Acid Symporter From Staphylococcus aureus Has Altered Substrate Specificity” (Frontiers in Chemistry, 2018).
